Measured values published in patent US11072606B2, “Compositions and methods for treating diseases and conditions” (University of Pittsburgh—Of the Commonwealth System of …, priority 2014, dated 2021).
In brackets after ≈: the same amount, converted by molar mass.

What was measured:
[1] = U937 monocyte cell death, Trypan blue staining; type: cell-based; conditions: human; U937 monocytes, compound for 16 hours, Trypan blue dead cells; read-out: LC50
Description: U937 monocytes (0.2 ml at 0.3×10^6/ml) were treated with each compound at different concentrations for 16 hours. The cells were then stained with Trypan blue to identify dead cells, and to calculate the LC50. Combined values were used to generate therapeutic indexes (TI)=LC50/IC50.

TNFα cytokine release = assay: LPS-induced TNFα cytokine release in PBMC (ELISA); type: cell-based; conditions: LPS 50 ng/ml for 16 hours concurrently with compound, TNFα by ELISA
Description: Peripheral blood mononuclear cells (PBMC) (0.2 ml at 0.3×10^6/ml) were treated with lipopolysaccharide (LPS) (50 ng/ml) for 16 hours concurrently with each compound tested at different concentrations. TNFα cytokine release was monitored by ELISA. These concentrations were used to calculate the IC50.

[2] = system: LPS induced lung inflammation; assay: LPS induced lung inflammation in mice (FIG. 5); type: in vivo; conditions: compound P.O., LPS 3 mg/kg i.t., 18 h, lavage protein, cell counts, cytokine secretion, *P<0.05 versus Vehicle
Description: BC-1421 was administered to mice though P.O., and mice were then immediately challenged with LPS (3 mg/kg, i.t.) for an additional 18 h. Mice were then euthanized and lungs were lavaged with saline, harvested, and then homogenized. Lavage protein, cell counts and cytokine secretion were measured in. The data represent n=4-5 mice/group, *P<0.05 versus Vehicle.

SMILES | CC50 at 16 h [1] [µg/mL] | IC50 (TNFα cytokine release) [µg/mL] | LPS induced lung inflammation [2]
c1ncn(-c2ccc(CNCCNCc3ccc(-n4cncn4)cc3)cc2)n1 [Compound 203] | > 100 | 2 to 20 (≈ 5.34 to 53.4 µM) | 
C[C@H](CNCc1ccc(-c2ncccn2)cc1)NCc1ccc(-c2ncccn2)cc1 [Compound 205] | > 100 | < 2 | 
Fc1cc(CNCCNCc2ccc(-c3ncccn3)c(F)c2)ccc1-c1ncccn1 [BC-1421, N^1,N^2-bis(3-fluoro-4-(pyrimidin-2-yl)benzyl)ethane-1,2-diamine] |  |  | reduces LPS induced lung inflammation
CC(C)(CNCc1ccc(-c2ncccn2)cc1)NCc1ccc(-c2ncccn2)cc1 [Compound 206] | > 100 | < 2 | 
c1ncc(-c2ccc(CNCCNCc3ccc(-c4cncnc4)cc3)cc2)cn1 [Compound 201] | > 100 | < 2 | 
CC(C)(NCc1ccc(-c2ncccn2)cc1)C(C)(C)NCc1ccc(-c2ncccn2)cc1 [Compound 207] | > 100 | 2 to 20 (≈ 4.42 to 44.2 µM) | 
c1nc(N2CCCC2)ncc1CNCCCCNCc1cnc(N2CCCC2)nc1 [Compound 210] | 1 to 10 (≈ 2.44 to 24.4 µM) | < 2 | 
c1ccc(-c2ncc(CNCCNCc3cnc(-c4ccccn4)nc3)cn2)nc1 [Compound 209] | 10 to 100 (≈ 25.1 to 251 µM) | 2 to 20 (≈ 5.02 to 50.2 µM) | 
c1ccc(-c2ncc(CNCCNCc3cnc(-c4ccccc4)nc3)cn2)cc1 [Compound 208] | 10 to 100 (≈ 25.2 to 252 µM) | 2 to 20 (≈ 5.04 to 50.4 µM) | 
c1nnc(-c2ccc(CNCCNCc3ccc(-c4nnco4)cc3)cc2)o1 [Compound 202] | > 100 | < 2 | 
C[C@@H](CNCc1ccc(-c2ncccn2)cc1)NCc1ccc(-c2ncccn2)cc1 [Compound 204] | > 100 | < 2 | 
